Test results published in the supplement of paper PMC11451515.

Tested on: NOMO1
Assay: cell viability relative to DMSO control; higher = less cytotoxic
Conditions: 48 h
Summary of the method: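 Library compounds in DMSO were pin-dosed into 1536-well plates (5 μl) holding NOMO1 or SEM (500 cells/well) or P12-Ichikawa (1000 cells/well) leukemia cells, across an 11-point threefold series of 47 μM to 0.79 nM. Each cell line had been adapted for at least four passages in each medium. CellTiter-Glo One luminescence was read after 48 h at 37°C. Viability is the per-plate percentage relative to DMSO wells, with cell-free wells as background.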

[1] = HPLM + 10% dialyzed FBS, 0.000781 µM
[2] = HPLM + 10% dialyzed FBS, 0.00234 µM
[3] = HPLM + 10% dialyzed FBS, 0.00702 µM
[4] = HPLM + 10% dialyzed FBS, 0.0211 µM
[5] = HPLM + 10% dialyzed FBS, 0.0632 µM
[6] = HPLM + 10% dialyzed FBS, 0.19 µM
[7] = HPLM + 10% dialyzed FBS, 0.569 µM
[8] = HPLM + 10% dialyzed FBS, 1.71 µM
[9] = HPLM + 10% dialyzed FBS, 5.12 µM
[10] = HPLM + 10% dialyzed FBS, 15.4 µM
[11] = HPLM + 10% dialyzed FBS, 46.1 µM
[12] = RPMI 5 mM glucose + 10% FBS, 0.000781 µM
[13] = RPMI 5 mM glucose + 10% FBS, 0.00234 µM
[14] = RPMI 5 mM glucose + 10% FBS, 0.00702 µM
[15] = RPMI 5 mM glucose + 10% FBS, 0.0211 µM
[16] = RPMI 5 mM glucose + 10% FBS, 0.0632 µM
[17] = RPMI 5 mM glucose + 10% FBS, 0.19 µM
[18] = RPMI 5 mM glucose + 10% FBS, 0.569 µM
[19] = RPMI 5 mM glucose + 10% FBS, 1.71 µM
[20] = RPMI 5 mM glucose + 10% FBS, 5.12 µM
[21] = RPMI 5 mM glucose + 10% FBS, 15.4 µM
[22] = RPMI 5 mM glucose + 10% FBS, 46.1 µM
[23] = RPMI 5 mM glucose + 10% dialyzed FBS, 0.000781 µM
[24] = RPMI 5 mM glucose + 10% dialyzed FBS, 0.00234 µM
[25] = RPMI 5 mM glucose + 10% dialyzed FBS, 0.00702 µM
[26] = RPMI 5 mM glucose + 10% dialyzed FBS, 0.0211 µM
[27] = RPMI 5 mM glucose + 10% dialyzed FBS, 0.0632 µM
[28] = RPMI 5 mM glucose + 10% dialyzed FBS, 0.19 µM
[29] = RPMI 5 mM glucose + 10% dialyzed FBS, 0.569 µM
[30] = RPMI 5 mM glucose + 10% dialyzed FBS, 1.71 µM
[31] = RPMI 5 mM glucose + 10% dialyzed FBS, 5.12 µM
[32] = RPMI 5 mM glucose + 10% dialyzed FBS, 15.4 µM
[33] = RPMI 5 mM glucose + 10% dialyzed FBS, 46.1 µM

With `CCn1c(-c2nonc2N)nc2cnc(Oc3cccc(NC(=O)c4ccc(OCCN5CCOCC5)cc4)c3)cc21` the cell viability [1] was 90.6%, the cell viability [2] was 123% and the cell viability [3] was 105%. The cell viability [4] was 117%, the cell viability [5] was 117% and the cell viability [6] was 104%. For the same molecule, the cell viability [7] was 115%, the cell viability [8] was 110% and the cell viability [9] was 94.6%. It also gave a cell viability [10] of 95.3%, a cell viability [11] of 83.2% and a cell viability [12] of 92.8%. It also gave a cell viability [13] of 98.6%, a cell viability [14] of 111% and a cell viability [15] of 109%. The cell viability [16] was 110%, the cell viability [17] was 95.8% and the cell viability [18] was 87.4%. For the same molecule, the cell viability [19] was 93.8%, the cell viability [20] was 82.4% and the cell viability [21] was 74.1%. It also gave a cell viability [22] of 64%, a cell viability [23] of 88.9% and a cell viability [24] of 107%. It also gave a cell viability [25] of 110%, a cell viability [26] of 102% and a cell viability [27] of 115%. It also gave a cell viability [28] of 103%, a cell viability [29] of 89.9% and a cell viability [30] of 87.6%. The cell viability [31] was 79.1%, the cell viability [32] was 71.2% and the cell viability [33] was 74.4%.
In the case of `CC(C)C(=O)Nc1ccc([N+](=O)[O-])c(C(F)(F)F)c1`, the cell viability [1] is reported as 118%, the cell viability [2] is reported as 120% and the cell viability [3] is reported as 118%. For the same molecule, the cell viability [4] was 128%, the cell viability [5] was 140% and the cell viability [6] was 137%. The cell viability [7] was 44%, the cell viability [8] was 39.3% and the cell viability [9] was 39%. For the same molecule, the cell viability [10] was 42.3% and the cell viability [11] was 41.3%.
With `CCOC(=O)\C1=C(/C)N\C2=C(C1C3=CC=C(C=C3)C4=CC=CC=C4)\C(=O)CC(C)(C)C2` (stereo unspecified) the cell viability [1] was 125%, the cell viability [2] was 97.2% and the cell viability [3] was 125%. The cell viability [4] was 117%, the cell viability [5] was 116% and the cell viability [6] was 114%. It also gave a cell viability [7] of 102%, a cell viability [8] of 102% and a cell viability [9] of 106%. It also gave a cell viability [10] of 82.3%, a cell viability [11] of 73.6% and a cell viability [12] of 107%. For the same molecule, the cell viability [13] was 103%, the cell viability [14] was 102% and the cell viability [15] was 108%. For the same molecule, the cell viability [16] was 105%, the cell viability [17] was 109% and the cell viability [18] was 103%. The cell viability [19] was 102%, the cell viability [20] was 106% and the cell viability [21] was 87%. It also gave a cell viability [22] of 88.2%, a cell viability [23] of 110% and a cell viability [24] of 103%. The cell viability [25] was 111%, the cell viability [26] was 114% and the cell viability [27] was 113%. The cell viability [28] was 95.1%, the cell viability [29] was 104% and the cell viability [30] was 112%. The cell viability [31] was 90.1%, the cell viability [32] was 73.7% and the cell viability [33] was 74.8%.
Work on `Cn1c(CNc2ccc(C(=N)N)cc2)nc2cc(C(=O)N(CCC(=O)O)c3ccccn3)ccc21` yielded a cell viability [1] of 109%, a cell viability [2] of 106% and a cell viability [3] of 103%. The cell viability [4] was 109%, the cell viability [5] was 103% and the cell viability [6] was 95.5%. It also gave a cell viability [7] of 116%, a cell viability [8] of 119% and a cell viability [9] of 125%. It also gave a cell viability [10] of 124%, a cell viability [11] of 111% and a cell viability [12] of 92%. The cell viability [13] was 92.8%, the cell viability [14] was 94.6% and the cell viability [15] was 95.5%. For the same molecule, the cell viability [16] was 99.3%, the cell viability [17] was 98.7% and the cell viability [18] was 97.7%. For the same molecule, the cell viability [19] was 109%, the cell viability [20] was 97.3% and the cell viability [21] was 103%. For the same molecule, the cell viability [22] was 111%, the cell viability [23] was 94.5% and the cell viability [24] was 91.3%. The cell viability [25] was 95.9%, the cell viability [26] was 93.8% and the cell viability [27] was 113%. It also gave a cell viability [28] of 99.6%, a cell viability [29] of 94% and a cell viability [30] of 104%. The cell viability [31] was 96%, the cell viability [32] was 110% and the cell viability [33] was 116%.
In the case of `C[S+]([O-])(=O)C1=CC=C(C=C1)C/2=C(/C(=O)OC2)C3=CC=CC=C3`, the cell viability [12] is reported as 106%, the cell viability [13] is reported as 110% and the cell viability [14] is reported as 118%. For the same molecule, the cell viability [15] was 109%, the cell viability [16] was 120% and the cell viability [17] was 115%. For the same molecule, the cell viability [18] was 118%, the cell viability [19] was 119% and the cell viability [20] was 114%. The cell viability [21] was 108%, the cell viability [22] was 123% and the cell viability [23] was 107%. The cell viability [24] was 118%, the cell viability [25] was 106% and the cell viability [26] was 111%. For the same molecule, the cell viability [27] was 121%, the cell viability [28] was 118% and the cell viability [29] was 123%. For the same molecule, the cell viability [30] was 120%, the cell viability [31] was 108% and the cell viability [32] was 131%. For the same molecule, the cell viability [33] was 129%.
`COc1cc(OC)c(/C=C/[S+](=O)([O-])Cc2ccc(OC)c(NCC(=O)[O][Na])c2)c(OC)c1` showed a cell viability [1] of 120%, a cell viability [2] of 113% and a cell viability [3] of 119%. It also gave a cell viability [4] of 118%, a cell viability [5] of 126% and a cell viability [6] of 60.3%. It also gave a cell viability [7] of 43.7%, a cell viability [8] of 47.7% and a cell viability [9] of 44%. It also gave a cell viability [10] of 42.5%, a cell viability [11] of 34.4% and a cell viability [12] of 110%. For the same molecule, the cell viability [13] was 104%, the cell viability [14] was 102% and the cell viability [15] was 121%. The cell viability [16] was 109%, the cell viability [17] was 99.6% and the cell viability [18] was 27.6%. For the same molecule, the cell viability [19] was 23.9%, the cell viability [20] was 27% and the cell viability [21] was 26.7%. For the same molecule, the cell viability [22] was 24.9%, the cell viability [23] was 111% and the cell viability [24] was 128%. For the same molecule, the cell viability [25] was 111%, the cell viability [26] was 117% and the cell viability [27] was 122%. For the same molecule, the cell viability [28] was 37.5%, the cell viability [29] was 31.7% and the cell viability [30] was 26.1%. It also gave a cell viability [31] of 26.2%, a cell viability [32] of 23.6% and a cell viability [33] of 24.1%.
With `CNc1nccc(-c2cccnc2Oc2cc(C(=O)Nc3cccc(C(F)(F)F)c3)ccc2C)n1` the cell viability [1] was 104%, the cell viability [2] was 111% and the cell viability [3] was 120%. It also gave a cell viability [4] of 135%, a cell viability [5] of 130% and a cell viability [6] of 147%. For the same molecule, the cell viability [7] was 127%, the cell viability [8] was 117% and the cell viability [9] was 115%. The cell viability [10] was 82.7%, the cell viability [11] was 110% and the cell viability [12] was 115%. The cell viability [13] was 102%, the cell viability [14] was 112% and the cell viability [15] was 125%. For the same molecule, the cell viability [16] was 120%, the cell viability [17] was 133% and the cell viability [18] was 130%. It also gave a cell viability [19] of 119%, a cell viability [20] of 112% and a cell viability [21] of 87.7%. For the same molecule, the cell viability [22] was 98.2%, the cell viability [23] was 98% and the cell viability [24] was 105%. The cell viability [25] was 108%, the cell viability [26] was 116% and the cell viability [27] was 108%. For the same molecule, the cell viability [28] was 134%, the cell viability [29] was 105% and the cell viability [30] was 125%. The cell viability [31] was 125%, the cell viability [32] was 78.2% and the cell viability [33] was 99.1%.
For `OC1CCC(Nc2ncc3nc(Nc4c(F)cc(F)cc4F)n([C@@H]4CCOC4)c3n2)CC1` (stereo partly specified), the cell viability [1] was 112%, the cell viability [2] was 119% and the cell viability [3] was 131%. For the same molecule, the cell viability [4] was 143%, the cell viability [5] was 126% and the cell viability [6] was 142%. For the same molecule, the cell viability [7] was 143%, the cell viability [8] was 134% and the cell viability [9] was 141%. For the same molecule, the cell viability [10] was 131%, the cell viability [11] was 128% and the cell viability [12] was 106%. It also gave a cell viability [13] of 113%, a cell viability [14] of 108% and a cell viability [15] of 113%. For the same molecule, the cell viability [16] was 107%, the cell viability [17] was 118% and the cell viability [18] was 105%. It also gave a cell viability [19] of 110%, a cell viability [20] of 125% and a cell viability [21] of 115%. It also gave a cell viability [22] of 121%, a cell viability [23] of 102% and a cell viability [24] of 119%. The cell viability [25] was 115%, the cell viability [26] was 119% and the cell viability [27] was 114%. It also gave a cell viability [28] of 128%, a cell viability [29] of 122% and a cell viability [30] of 125%. It also gave a cell viability [31] of 135%, a cell viability [32] of 131% and a cell viability [33] of 126%.
